| Structure (SMILES) | melting point [°C] |
| --- | --- |
| C#CCOc1ccc([C@@H]2CCCC[C@H]2NC(=O)[C@@H](NS(C)(=O)=O)C(C)C)cc1OC | 183 to 185 |
| COc1ccc(-c2ccccc2NC(=O)[C@@H](NS(C)(=O)=O)C(C)C)cc1OC | 68 to 70 |
| CCC#CCOc1ccc([C@@H]2CCCC[C@H]2NC(=O)[C@@H](NS(=O)(=O)N(C)C)C(C)C)cc1OC | 158 to 160 |
| CCOc1ccc(-c2ccccc2NC(=O)[C@@H](NS(C)(=O)=O)C(C)C)cc1OC | 95 to 98 |

Results, then the compound that gave them:

| melting point [°C] | Structure (SMILES) |
| --- | --- |
| 149 to 151 | C#CCOc1ccc([C@@H]2CCCC[C@H]2NC(=O)[C@@H](NS(=O)(=O)CC)C(C)C)cc1OC |
| 166 to 168 | CCC#CCOc1ccc([C@@H]2CCCC[C@H]2NC(=O)[C@@H](NS(C)(=O)=O)C(C)C)cc1OC |
| 158 to 160 | COc1ccc(-c2ccccc2NC(=O)CNS(C)(=O)=O)cc1OC |
| 133 to 136 | CCC#CCOc1ccc([C@@H]2CCCC[C@H]2NC(=O)[C@@H](NS(=O)(=O)CC)C(C)C)cc1OC |

Source: patent publication US20040214721A1 (priority 2001, published 2004)
